Test results: a melting point compilation (Tetko et al.; mined from patent text by program, amines drawn as free bases though some values may be those of a salt)

| SMILES | melting point [°C] |
| --- | --- |
| CC(=O)Nc1nc(CCCN2CCN(C(c3ccccc3)c3ccccc3)CC2)cs1 | 213 to 215 |
| CNc1nc(Cl)nc2c(SC)ncnc12 | 233 to 234 |
| Cc1csc2nc3cccc(C(F)(F)F)c3c(=O)n12 | 182 to 186 |
| CCn1c(C2CCCO2)nc2c(N)nc(OCCc3ccccc3)nc21 (stereo not drawn) | 121 to 123 |
| COc1cc2ncnc(N3CCN(C(=S)Nc4ccncc4)CC3)c2cc1OC | 218 to 220 |
| Cc1c(F)c(N2CCC(N)C2)nc2c1c(=O)c(C(=O)O)cn2-c1ccc(F)cc1F (stereo not drawn) | 260 |
| CC(=O)Nc1ccc(OCCCCO[N+](=O)[O-])cc1 | 92 to 98 |
| CC(C)c1cc(OCCOCc2ccccc2)cc2c1C(=O)N(CCl)S2(=O)=O | 101 to 102 |
| O=C(Nc1ccccc1)c1cccc(C2=NOCCS2)c1 | 149 to 150 |
| CCOc1ncnc(OCC)c1NC(=S)NC(=O)c1ccccc1 | 162 |
| COC(=O)CC(NC(=O)C(CSC(C)=O)Cc1ccccc1)c1ccc2ccccc2c1 (stereo not drawn) | 133 to 135 |
| Fc1c(F)c(F)c(OC2(c3ccccc3)CCN(Cc3ccccc3)CC2)c(F)c1F | 80 to 83 |
| O=[N+]([O-])c1ccc(Cn2c(CO)nc3ccccc32)cc1 | 162 to 165 |
| CC(=O)CC(=O)Nc1ccc(SC(F)(F)F)cc1 | 120 to 122 |
| N=C(Nc1cc(Cl)cc(NC(=O)C=Cc2ccccc2Cl)c1)c1ccc(NCc2ccccn2)cc1 | 119 to 122 |
| O=c1c2ccccc2nnn1CCO | 114 |
| CS(=O)(=O)c1ccc(-c2cnn(-c3ccc(F)c(F)c3)c(=O)c2-c2cccs2)cc1 | 189 to 191 |
| O=C(NCCN1CCOc2ccc(O)cc21)c1ccco1 | 59 to 62 |
| C=CCOCCOC(=O)c1cc(-n2c(OC)nc(C(F)(F)F)cc2=O)c(F)cc1Cl | 74 to 77 |
| O=C1OC2(CCN(C(=O)Nc3cnc(-c4cccc(O)c4)cn3)CC2)c2ccccc21 | 257 to 259 |
| CCOC(=O)CN1C(=O)SC(Cc2ccc(N3CCC(NCC(O)c4ccc(O)c(NS(C)(=O)=O)c4)CC3)cc2)C1=O (stereo not drawn) | 153 to 155 |
| CC(C)(CO)c1ccc(C(=O)Nc2cn3cc(-c4ccsc4)ccc3n2)cc1 | 250 to 252 |
| CSc1ccccc1C(=N)N1CCN(CCc2cc3c(cc2Cl)NC(=O)C3)CC1 | 103 to 106 |
| C=CCn1c(C(F)(F)F)nc2cc(-n3c(=O)cc(C(F)(F)F)n(C)c3=O)ccc21 | 185 to 187 |
| CC(C)(C)[C@@H](CO)NC(=O)[C@@H](CC(=O)OCc1ccccc1)n1ccc(-c2ccc(-c3ccc(C(N)=O)cc3)cc2)c1 | 201 to 203 |

| SMILES | melting point [°C] |
| --- | --- |
| CCCCCc1nc(-c2ccccc2)c(CCC(=O)O)o1 | 80 to 81 |
| Cc1cccc(-c2n[nH]cc2Cl)c1 | 109 |
| CC(C)C1NS(=O)(=O)N(COC(=O)c2c(Cl)cccc2Cl)C1=O (stereo not drawn) | 151 to 152 |
| Nn1cccc1C(=O)c1ccccc1 | 65 to 69 |
| Cn1c(-c2ccc([N+](=O)[O-])cc2)nc2ccccc21 | 208 to 209 |
| NS(=O)(=O)c1ccc(NN=Cc2ccc(Cl)cc2Cl)cc1 | 219 to 221 |
| CCOc1c(C(=O)O)cnc2c1cnn2CC | 198 to 199 |
| OC(CN1CCNCC1)C(O)(c1ccccc1)C1CCCC1 (stereo not drawn) | 50 |
| CCc1c(CCNC(=O)CCCC(=O)NCCc2ccc(OC)c(OC)c2CC)ccc(OC)c1OC | 171 to 173 |
| Oc1cccc(-c2nc(Nc3ccc(Cl)cc3)c3ccccc3n2)n1 | > 350 |
| O=c1c(Cl)nsnc1Oc1cccnc1 | 134 to 136 |
| NC(=O)c1nc(-c2cccc(O)c2)nc2c1[nH]c(=O)n2-c1cccc2[nH]ccc12 | > 260 |
| COCCOCCOc1cc(OC)c(/C=C/C(=O)c2ccc(C(=O)O)cc2)cc1-c1cccs1 | 174 to 175 |
| CCCCC1C(C(=O)OCC)C(O)(C(F)(F)F)NC(O)(C(F)(F)F)C1C(=O)OCC (stereo not drawn) | 77 to 80 |
| CCOC(=O)Cn1c(C)cnc(NCC(F)(F)c2ccccc2)c1=O | 106 to 110 |
| c1ccc(Sc2sc(-c3ccccc3)cc2-c2ccccc2)cc1 | 96 to 97 |
| COc1ccc(C2=NN(CC3CCCCC3)C(=O)[C@H]3CCCC[C@@H]23)cc1OC (relative stereo) | 137 to 139 |
| COC(=O)CCCCCCCCCCCCCCC=O | 41.5 |
| CCOC(=O)C(C)(C)NC(=O)c1cccc(C2=NC(C)(C)Cc3c(CC#N)c(OC)c4c(c32)CC(C)(C)O4)c1 | 126 to 128 |
| CC(=O)N(CCCC(=O)c1ccccc1)C(C)C | 36 to 39 |
| CCc1ccc(C(=O)O)c([N+](=O)[O-])c1 | 111 |
| CCOC(=O)c1cc2ccc(Cl)nc2[nH]1 | 144 to 145 |
| CN(CC(=O)O)C(=O)CCc1cccc(-c2nc(=O)c3ccccc3s2)n1 | 194 to 195 |
| CCn1c(=O)c2cccc3c2n(c1=O)-c1cc(C(F)(F)F)ccc1S3 | 150 to 152 |
| O=C(Nc1ccc(N2CCC(NC[C@H](O)COc3cccc4[nH]c(=O)[nH]c34)CC2)cc1)c1ccc2c(c1)OCO2 | 160 to 169 |

| SMILES | melting point [°C] |
| --- | --- |
| Cc1ccc(Nc2nc(=O)c3cccnc3s2)cc1 | 208 to 209 |
| CN(C)CC1Cn2cc(C(=O)NCc3ccc(Cl)cc3)c(=O)c3cc(CN4CCOCC4)cc(c32)O1 (stereo not drawn) | 168 to 170 |
| CCOC(=O)C(=O)Nc1ccc2[nH]c(=O)oc2c1 | 180 to 186 |
| CCCCCCCCCCc1ccc(CO)cc1 | 39 to 40 |
| COCCOCc1c(CN(C)C[C@@H](O)c2ccco2)sc2c(=O)c(C(=O)NCc3ccc(Cl)cc3)cn(C)c12 | 146 to 147 |
| COC(=O)C(Cc1ccc(OCc2nc3ccc(Oc4ccc(C56CC7CC(CC(C7)C5)C6)cc4)cc3n2C)cc1)OCc1ccc(F)cc1 (stereo not drawn) | 118 to 120 |
| C#Cc1ccc(OC)c(C#N)c1 | 100 to 101 |
| COc1ccc(C(=O)C=CN(C)C)cc1OC | 124 to 125 |
| Cc1ccc(C#Cc2cccc(N)c2)cc1 | 88 |
| CCNC(=O)c1[nH]c2ccc(Cl)cc2c1S(=O)(=O)c1ccccc1 | 259 to 260 |
| COC(=O)c1ccc(OC)c2c(C(F)(F)F)c(OC)ccc12 | 120 to 123 |
| O=[N+]([O-])C=C(NCCSCc1nccs1)NCCSCc1nccs1 | 50 to 51 |
| NC(=O)N1C(=O)Cc2cc(N)ccc21 | 189 to 191 |
| COc1cc(Nc2nccc(-c3ccc(OCCCN)cc3)n2)cc(OC)c1OC | 161 to 162 |
| C#CC1(OC(C)=O)CCC2C3CCc4cc(OC)ccc4C3CCC21CC (stereo not drawn) | 178 to 182 |
| COc1ccc(COc2cccc(OC)c2C(=O)/C=C(\Nc2cnc(C#N)cn2)SC)cc1 | 128 to 135 |
| CCOC(=O)c1ccc(NC(=O)C(C)CS)nc1 (stereo not drawn) | 58 to 61 |
| COc1ccc(CN(C)CCCc2ccc(NC(=O)c3cccc4c(=O)c5cccc(F)c5[nH]c34)cc2)cc1OC | 158 |
| CC(C)(C)c1cccc(S(=O)(=O)n2c(C(F)c3ccc(C(=O)O)cc3)cc3cc(C(F)(F)F)ccc32)c1 (stereo not drawn) | 170 |
| Cc1nc(-c2ccc(S(C)(=O)=O)cc2)c(-c2ccc(F)cc2)s1 | 134 to 135 |
| CCOc1cc2c(cc1OC)C(c1ccc(C(=O)N(C(C)C)C(C)C)cc1)=N[C@@H]1CCOC[C@H]21 | 116 to 120 |
| CCOC(=O)c1c(CCCCc2nccn2C)nc2cc(OC)c(OC)cc2c1-c1ccc(OC)c(OC)c1 | 180 to 183 |
| Nc1cccc(Cc2cc(O)ccc2O)c1 | 151 to 152 |
| CN(C)C(=O)Nc1cc(C(C)(C)C)[nH]n1 | 220 to 222 |
| CC1(C)Oc2ccncc2[C@@H](Oc2ccccn2)[C@@H]1O (relative stereo) | 207 |

| SMILES | melting point [°C] |
| --- | --- |
| Cc1cc(C(C)N(O)C(N)=O)c(C)o1 (stereo not drawn) | 145 to 146 |
| C[C@H](O)C(=O)N[C@@H]1C(=O)Nc2c(F)cccc2O[C@@H]1C | 221 to 225 |
| CCCn1c(=O)c2c(nc(/C=C/c3ccc(OC)cc3)n2C)n(CCC)c1=O | 160 to 161 |
| O=C(CC(c1cc(F)ccc1F)S(=O)(=O)c1ccc(Cl)cc1)N1CCCC1 (stereo not drawn) | 122 to 125 |
| CCCOc1ccccc1-c1nc(N)c(NC(=O)C(F)(F)F)c(=O)[nH]1 | 203 to 204 |
| COc1ccc(-n2nc(CC(C(=O)N(C)O)c3ccc(Cl)cc3)cc2-c2ccc(Cl)cc2)cc1 (stereo not drawn) | 113 to 117 |
| NCCNS(=O)(=O)c1cc(NC(=O)c2cnn3c(C(F)F)cc(-c4ccc(C(F)(F)F)cc4)nc23)c(Cl)s1 | 150 |
| CCC1(Cl)Cc2cc(OCC(=O)OC)c(Cl)c(Cl)c2C1=O (stereo not drawn) | 111 |
| O=C1Nc2cccc(-c3ccc(C(=O)O)cc3)c2/C1=C/c1ccc[nH]1 | 315 to 317 |
| O=C(NC1N=C(c2ccccc2F)c2ccccc2NC1=O)c1ccc[nH]1 (racemic) | 271 to 274 |
| CC(SC1COC(c2ccc(C(=O)Nc3ccc(OC(F)(F)F)cc3)cc2)OC1)C(O)(Cn1cncn1)c1ccc(F)cc1F (stereo not drawn) | 180 |
| CN(Cc1coc(C=Cc2ccc(C(F)(F)F)cc2)n1)c1ccc(CCCCn2ccnn2)cc1 | 112 to 114 |
| CN(C)C(=O)CNC(=O)c1ccc(-c2ccc3nnn(Cc4ccc5ncccc5c4)c3n2)cc1F | 177 to 179 |
| O=C(O)C(=O)N1CN(C(=O)c2c(F)cccc2F)C(=O)N(c2ccc(Oc3ccc(C(F)(F)F)cc3Cl)cc2F)C1 | 67 to 72 |
| CCCOc1nc(NC(C)=O)nc2ccc(Cl)nc12 | 191 |
| C=C(c1ccn[nH]1)c1ccc(OCC(=O)OCC)c(Cl)c1Cl | 110 to 112 |
| N#Cc1c(N2CCc3ccccc3CC2)nc2n(c1=O)CCN2 | > 200 |
| O=[N+]([O-])c1cccc(Nc2nc(Cl)nc(NC3CCCCCC3)n2)c1 | 82 |
| CC(C)OC(=O)C(C)Oc1ccc(COc2ccc(Cl)cc2)cc1 (stereo not drawn) | 81 |
| COc1ccc(C(=O)NS(=O)(=O)C=Cc2ccc(Cl)c(Cl)c2)cc1OC | 145 to 147 |
| CCCCOc1nc(N)c2nc(OC)n(CCCBr)c2n1 | 200 to 201 |
| CCCCCSc1cccc(-c2nc(=O)c3ccccc3s2)n1 | 105 |
| COC(=O)Cc1c(C(=O)OC)ccn1CCI | 137 to 138 |
